Results on five molecules are retold here after ChEMBL document CHEMBL1201862, “PubChem BioAssay data set” (2004).

The target in one data set is Cytochrome P450 3A4 (Homo sapiens, UniProt P08684).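 Further: CYP3A4 tested as one member of a cytochrome P450 panel screen.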
The nature of data set [1]: inhibitors of HIV Env-driven cell fusion, dose response, cherry-pick (AID 652057). The format is functional, cell-based.
For data set [2], the system named is A-375. The data set can be described thus: A375 melanoma cell viability reduction, dose response, counter-screen for MITF modulator project, cherry-pick samples, set 2 (AID 540335). The format is functional, cell-based. The note with it: Homo sapiens. For orientation: The purpose of a counterscreen is to sort out artefacts and off-target activity.
Data set [3] deals with A-375. The experiment in a line: MITF: Counter assay: A375 proliferation Measured in Cell-Based System Using Plate Reader - 2084-03_Inhibitor_Dose_DryPowder_Activity. [Related pubchem assays (depositor defined):AID488944]. The note with it: Homo sapiens. The format is functional.
A short description of data set [4]: cytotoxicity in HEK-293T NF-kB-Luc cells, dose response, cytotoxicity control for B/T-cell NF-kB inhibitor project, cell-based, uHTS hits (AID 489019).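 Further: IC50 reflects cytotoxicity as loss of cell viability.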 The format is functional.
A short description of data set [5]: ZM109 Env clade C HIV-1 fusion inhibitors, dose response, HeLa effector, CEM target cells, luciferase, cherry-pick (AID 652058). The format is functional, cell-based.
A short description of data set [6]: inhibitors of clade B AD8 Env fusion, dose response, cell-based, cherry-pick (AID 652062).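 Further: luciferase signal from cell-cell fusion driven by HIV-1 clade B AD8 Env; potency is for inhibitors of fusion seen as a drop in luminescence.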 The format is functional.
A further data set concerns HT-1080. The experiment in a line: cytotoxicity in HT1080 fibrosarcoma cells, cell-based, fluorescence readout (AID 620). The note with it: Homo sapiens. The format is functional.
For data set [7], the target named is T1, Luciferin 4-monooxygenase (Photinus pyralis, UniProt P08659). The data set can be described thus: Counter Screen for Luciferase-based Assay Positives. [Related pubchem assays: 620, 618, 411 ].
T1 sequence (P08659 whole entry): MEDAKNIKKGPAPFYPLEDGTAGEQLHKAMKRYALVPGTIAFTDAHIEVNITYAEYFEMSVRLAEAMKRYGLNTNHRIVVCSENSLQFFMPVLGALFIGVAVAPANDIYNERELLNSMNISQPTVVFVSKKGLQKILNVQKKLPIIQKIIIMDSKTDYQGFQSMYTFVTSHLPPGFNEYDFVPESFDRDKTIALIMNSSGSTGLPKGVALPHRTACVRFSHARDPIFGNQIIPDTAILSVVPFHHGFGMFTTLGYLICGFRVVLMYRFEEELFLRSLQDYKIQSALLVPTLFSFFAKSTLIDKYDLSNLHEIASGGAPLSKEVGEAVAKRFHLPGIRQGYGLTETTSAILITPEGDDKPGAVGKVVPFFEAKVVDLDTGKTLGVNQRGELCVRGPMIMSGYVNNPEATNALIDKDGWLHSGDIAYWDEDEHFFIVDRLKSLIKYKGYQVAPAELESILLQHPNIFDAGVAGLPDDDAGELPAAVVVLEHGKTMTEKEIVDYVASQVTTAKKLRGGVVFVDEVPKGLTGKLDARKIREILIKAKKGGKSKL
Another data set deals with Jurkat. The experiment in a line: antigen receptor-induced NF-kB inhibitors, dose response, Jurkat, luciferase reporter, luminescence, B- and T-cell (AID 489004).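 Further: NF-kB luciferase reporter Jurkat cells stimulated with PMA plus ionomycin.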 The format is functional, cell-based. The following applies: Homo sapiens.
Data set [8] addresses T2, Microphthalmia-associated transcription factor (Homo sapiens, UniProt O75030).
T2 sequence (O75030 whole entry): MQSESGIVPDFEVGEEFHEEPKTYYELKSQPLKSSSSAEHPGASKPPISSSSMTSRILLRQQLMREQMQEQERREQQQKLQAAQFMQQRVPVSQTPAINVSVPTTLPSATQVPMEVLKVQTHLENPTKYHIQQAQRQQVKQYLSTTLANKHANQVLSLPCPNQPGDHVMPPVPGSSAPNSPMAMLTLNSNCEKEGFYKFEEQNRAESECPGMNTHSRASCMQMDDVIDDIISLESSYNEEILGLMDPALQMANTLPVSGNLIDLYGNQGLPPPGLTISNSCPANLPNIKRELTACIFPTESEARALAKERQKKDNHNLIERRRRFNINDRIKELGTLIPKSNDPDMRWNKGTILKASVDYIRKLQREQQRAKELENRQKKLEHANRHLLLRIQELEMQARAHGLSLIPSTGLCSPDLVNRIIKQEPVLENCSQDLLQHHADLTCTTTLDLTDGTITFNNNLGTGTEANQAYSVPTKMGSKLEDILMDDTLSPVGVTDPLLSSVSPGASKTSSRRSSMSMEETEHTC
The data set can be described thus: TRPM1 promoter luciferase signal decrease, dose response, MITF inhibitor project, cell-based, SK-MEL-5, cherry-picked, set 3 (AID 493073).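 Further: SK-MEL-5 melanoma cells with luciferase driven by the MITF target TRPM1 promoter.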 The format is functional.

Data set [9] is described as follows: off-target signal loss in HeLa-CEM21 co-culture – HeLa F-luc CTL cells, cherry-picked, counter-screen for HIV-1 Env fusion inhibitor project, dose response (AID 652040).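 Further: potency for signal decrease marking cytotoxic or nonspecific inhibition.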 The format is functional, cell-based.
Data set [10] addresses T1, Luciferin 4-monooxygenase. The experiment in a line: firefly luciferase enzyme inhibitors, dose response, biochemical, luminescence (AID 1891).
For another data set, the system named is HeLa. The experiment in a line: HeLa cell cytotoxicity, dose response, cytotoxicity control for MITF activator project, CellTiter-Glo luminescence, cherry-pick samples (AID 540259). The format is functional, cell-based. The following applies: Homo sapiens. (In ATP-based viability assays light output follows the ATP content of the culture.)
A short description of data set [11]: Luminescence Cell-Based Dose Confirmation HTS to Identify Inhibitors of Platelet Dense Granule Release. [Related pubchem assays: 1663 (Primary HTS), 1678 (Summary of Project)]. The format is functional.
The target of data set [12] is T3, Calpain-2 catalytic subunit (Sus scrofa, UniProt P43367).
T3 sequence (P43367 whole entry): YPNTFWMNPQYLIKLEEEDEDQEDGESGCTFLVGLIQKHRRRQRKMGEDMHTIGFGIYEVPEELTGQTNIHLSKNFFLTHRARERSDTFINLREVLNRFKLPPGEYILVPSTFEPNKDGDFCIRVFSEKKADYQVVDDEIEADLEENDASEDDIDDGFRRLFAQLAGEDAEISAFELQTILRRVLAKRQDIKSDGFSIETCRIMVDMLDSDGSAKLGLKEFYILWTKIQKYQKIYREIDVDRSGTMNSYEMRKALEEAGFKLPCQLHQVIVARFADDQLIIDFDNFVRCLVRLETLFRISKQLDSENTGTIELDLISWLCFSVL
The data set can be described thus: pig calpain II inhibitor potency, dose response, biochemical, fluorogenic peptide substrate (AID 1420). The format is functional.

Data set [13] concerns the target T4, Mannose-6-phosphate isomerase (Homo sapiens, UniProt P34949).
T4 sequence (P34949 whole entry): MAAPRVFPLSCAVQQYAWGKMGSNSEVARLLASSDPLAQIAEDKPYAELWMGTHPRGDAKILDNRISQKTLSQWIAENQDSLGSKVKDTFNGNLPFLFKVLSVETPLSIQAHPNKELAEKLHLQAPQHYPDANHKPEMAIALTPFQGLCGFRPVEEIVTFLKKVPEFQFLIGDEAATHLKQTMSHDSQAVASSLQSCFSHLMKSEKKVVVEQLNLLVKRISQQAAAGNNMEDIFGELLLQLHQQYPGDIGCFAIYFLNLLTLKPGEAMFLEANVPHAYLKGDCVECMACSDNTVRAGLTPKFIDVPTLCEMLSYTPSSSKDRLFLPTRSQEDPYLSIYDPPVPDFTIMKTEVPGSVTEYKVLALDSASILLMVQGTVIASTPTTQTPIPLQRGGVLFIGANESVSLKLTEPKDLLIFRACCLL
The experiment in a line: inhibitors of human PMI, primary screen, biochemical, fluorescence intensity, coupled assay (AID 1209).

For data set [14], the target named is T5, Intestinal-type alkaline phosphatase (Homo sapiens, UniProt P09923). The data set can be described thus: Dose Response confirmation of uHTS hits from a small molecule inhibitors of human intestinal alkaline phosphatase via a luminescent assay. [Related pubchem assays (depositor defined):AID2544, AID2574]. The format is functional.
T5 sequence (P09923 whole entry): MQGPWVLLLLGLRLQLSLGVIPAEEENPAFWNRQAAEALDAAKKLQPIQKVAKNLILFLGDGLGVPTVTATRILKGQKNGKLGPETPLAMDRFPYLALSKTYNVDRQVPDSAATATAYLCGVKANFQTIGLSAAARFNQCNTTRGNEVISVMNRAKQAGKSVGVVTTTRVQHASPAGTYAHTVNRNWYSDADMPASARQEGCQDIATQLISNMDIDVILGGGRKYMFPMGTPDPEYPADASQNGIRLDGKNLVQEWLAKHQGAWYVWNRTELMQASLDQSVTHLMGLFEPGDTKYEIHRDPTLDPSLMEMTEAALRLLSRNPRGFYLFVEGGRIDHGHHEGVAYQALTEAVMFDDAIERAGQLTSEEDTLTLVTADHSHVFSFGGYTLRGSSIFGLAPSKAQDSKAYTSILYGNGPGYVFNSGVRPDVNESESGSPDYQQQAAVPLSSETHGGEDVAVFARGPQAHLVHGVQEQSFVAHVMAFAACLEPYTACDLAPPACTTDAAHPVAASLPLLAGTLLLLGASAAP
For data set [15], the target named is Eukaryotic translation initiation factor 4E (Mus musculus, UniProt P63073). The experiment in a line: eIF4E–eIF4G protein interaction inhibitors, dose response, biochemical, TR-FRET (AID 855).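 Further: potency for disrupting eIF4E binding to eIF4GI seen as loss of FRET.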 The format is functional.
Eukaryotic translation initiation factor 4E, sequence (P63073 whole entry): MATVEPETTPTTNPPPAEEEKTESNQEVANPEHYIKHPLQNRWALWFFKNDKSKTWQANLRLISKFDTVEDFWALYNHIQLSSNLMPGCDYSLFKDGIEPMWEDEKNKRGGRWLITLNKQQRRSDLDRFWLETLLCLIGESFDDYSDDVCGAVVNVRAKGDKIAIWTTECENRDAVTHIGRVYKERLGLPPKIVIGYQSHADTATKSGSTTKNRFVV
Data set [16] has as its target T6, Histone-lysine N-methyltransferase NSD2 (Homo sapiens, UniProt O96028).
T6 sequence (O96028 whole entry): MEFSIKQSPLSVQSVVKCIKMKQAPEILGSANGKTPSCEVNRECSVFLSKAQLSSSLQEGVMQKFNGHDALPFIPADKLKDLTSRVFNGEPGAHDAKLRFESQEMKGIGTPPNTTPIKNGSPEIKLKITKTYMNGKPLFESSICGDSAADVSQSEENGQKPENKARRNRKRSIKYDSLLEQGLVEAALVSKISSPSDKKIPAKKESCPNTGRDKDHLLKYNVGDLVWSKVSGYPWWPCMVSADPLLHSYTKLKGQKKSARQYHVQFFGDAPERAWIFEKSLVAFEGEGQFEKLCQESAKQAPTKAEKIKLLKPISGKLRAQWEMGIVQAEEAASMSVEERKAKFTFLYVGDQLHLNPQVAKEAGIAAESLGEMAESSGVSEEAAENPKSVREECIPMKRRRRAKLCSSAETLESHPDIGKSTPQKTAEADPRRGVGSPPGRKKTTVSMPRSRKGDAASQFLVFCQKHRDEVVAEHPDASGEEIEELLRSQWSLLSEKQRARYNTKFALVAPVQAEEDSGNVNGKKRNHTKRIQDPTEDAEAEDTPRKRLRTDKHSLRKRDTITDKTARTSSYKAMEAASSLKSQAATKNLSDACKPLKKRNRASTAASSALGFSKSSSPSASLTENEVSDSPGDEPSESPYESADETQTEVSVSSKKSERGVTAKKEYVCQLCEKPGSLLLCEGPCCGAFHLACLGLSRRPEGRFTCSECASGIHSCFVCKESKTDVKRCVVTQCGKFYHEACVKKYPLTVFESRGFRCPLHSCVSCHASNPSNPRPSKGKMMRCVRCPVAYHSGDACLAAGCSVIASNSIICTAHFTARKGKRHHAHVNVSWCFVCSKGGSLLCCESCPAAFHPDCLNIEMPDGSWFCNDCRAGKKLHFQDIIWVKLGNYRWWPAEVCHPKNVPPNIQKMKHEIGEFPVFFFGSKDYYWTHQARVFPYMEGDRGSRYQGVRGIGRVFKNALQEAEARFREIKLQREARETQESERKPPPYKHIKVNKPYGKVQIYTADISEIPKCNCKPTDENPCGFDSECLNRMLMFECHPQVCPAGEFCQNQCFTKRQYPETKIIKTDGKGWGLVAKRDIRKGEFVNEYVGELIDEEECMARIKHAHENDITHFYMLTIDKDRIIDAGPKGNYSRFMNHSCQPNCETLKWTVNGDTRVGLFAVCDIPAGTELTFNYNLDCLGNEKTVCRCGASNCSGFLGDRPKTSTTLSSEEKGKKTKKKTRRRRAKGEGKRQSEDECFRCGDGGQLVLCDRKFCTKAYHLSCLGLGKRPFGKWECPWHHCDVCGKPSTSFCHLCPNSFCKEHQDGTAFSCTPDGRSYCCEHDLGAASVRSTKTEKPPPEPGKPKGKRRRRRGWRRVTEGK
The format is biochemical.

Data set [17] addresses Intestinal-type alkaline phosphatase (Mus musculus, UniProt P24822). The experiment in a line: PubChem AID 488874. The format is functional.
The target in data set [18] is T5, Intestinal-type alkaline phosphatase. The data set can be described thus: human IAP inhibitors, dose response, biochemical, luminescent, uHTS hits, set 2 (AID 488793). The format is functional.
Data set [19] has as its target T7, Alkaline phosphatase, tissue-nonspecific isozyme (Homo sapiens, UniProt P05186).
T7 sequence (P05186 whole entry): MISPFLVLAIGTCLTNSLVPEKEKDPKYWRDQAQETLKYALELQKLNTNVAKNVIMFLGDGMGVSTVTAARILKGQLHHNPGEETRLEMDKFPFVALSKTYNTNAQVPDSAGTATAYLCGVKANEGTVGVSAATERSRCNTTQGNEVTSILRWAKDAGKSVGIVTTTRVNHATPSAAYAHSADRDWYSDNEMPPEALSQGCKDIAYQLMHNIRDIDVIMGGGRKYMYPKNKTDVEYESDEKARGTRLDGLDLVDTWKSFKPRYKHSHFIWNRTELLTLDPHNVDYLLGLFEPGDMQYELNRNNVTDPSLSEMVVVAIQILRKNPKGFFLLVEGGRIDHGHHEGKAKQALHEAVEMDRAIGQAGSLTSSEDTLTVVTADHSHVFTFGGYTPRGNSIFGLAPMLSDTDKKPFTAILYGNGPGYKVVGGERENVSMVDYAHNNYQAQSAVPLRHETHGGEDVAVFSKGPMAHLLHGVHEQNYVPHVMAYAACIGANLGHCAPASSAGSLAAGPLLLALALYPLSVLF
The experiment in a line: inhibition of tissue-nonspecific alkaline phosphatase – biochemical, dose response (AID 488882). The format is functional.

A short description of data set [20]: cytotoxicity in HMLE control line with eGFP shRNA, dose response, counter-screen for HMLE_sh_ECad selective toxicity project, cell-based, HMLE_sh_eGFP, luminescence (AID 463074).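 Further: HMLE human mammary epithelial cells expressing control shRNA against eGFP.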 The format is functional, Homo sapiens.
A short description of data set [21]: Luminescence Cell-Based Dose Retest to Confirm Inhibitors of Cancer Stem Cells. [Related pubchem assays (depositor defined):AID2717, AID2721]. The format is functional. The following applies: Homo sapiens.

Active and inactive are the calls of the source.

The AC50 is the midpoint of the concentration-response curve, whichever way the signal moves. Broadly, the IC50 is the concentration that inhibits the measured activity by half. For orientation: EC50 means the concentration giving half of the maximal effect.

Intestinal-type alkaline phosphatase (Mus musculus, UniProt P24822), sequence (P24822 whole entry): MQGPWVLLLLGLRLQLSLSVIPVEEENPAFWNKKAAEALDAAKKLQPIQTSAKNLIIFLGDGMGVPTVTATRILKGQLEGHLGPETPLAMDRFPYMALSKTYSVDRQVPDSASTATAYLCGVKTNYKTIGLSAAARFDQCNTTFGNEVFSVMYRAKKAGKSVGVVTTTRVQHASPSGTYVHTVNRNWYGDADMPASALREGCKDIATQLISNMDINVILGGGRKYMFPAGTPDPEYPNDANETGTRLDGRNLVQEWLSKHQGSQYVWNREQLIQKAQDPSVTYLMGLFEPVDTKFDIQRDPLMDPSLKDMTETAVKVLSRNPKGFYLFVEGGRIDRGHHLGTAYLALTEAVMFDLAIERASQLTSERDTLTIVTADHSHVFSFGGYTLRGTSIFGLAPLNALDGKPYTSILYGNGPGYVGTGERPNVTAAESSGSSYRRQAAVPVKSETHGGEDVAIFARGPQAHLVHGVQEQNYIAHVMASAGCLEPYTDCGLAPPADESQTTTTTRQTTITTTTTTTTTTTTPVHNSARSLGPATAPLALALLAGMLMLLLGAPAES
Cytochrome P450 3A4, sequence (P08684 whole entry, the tested form may be a part): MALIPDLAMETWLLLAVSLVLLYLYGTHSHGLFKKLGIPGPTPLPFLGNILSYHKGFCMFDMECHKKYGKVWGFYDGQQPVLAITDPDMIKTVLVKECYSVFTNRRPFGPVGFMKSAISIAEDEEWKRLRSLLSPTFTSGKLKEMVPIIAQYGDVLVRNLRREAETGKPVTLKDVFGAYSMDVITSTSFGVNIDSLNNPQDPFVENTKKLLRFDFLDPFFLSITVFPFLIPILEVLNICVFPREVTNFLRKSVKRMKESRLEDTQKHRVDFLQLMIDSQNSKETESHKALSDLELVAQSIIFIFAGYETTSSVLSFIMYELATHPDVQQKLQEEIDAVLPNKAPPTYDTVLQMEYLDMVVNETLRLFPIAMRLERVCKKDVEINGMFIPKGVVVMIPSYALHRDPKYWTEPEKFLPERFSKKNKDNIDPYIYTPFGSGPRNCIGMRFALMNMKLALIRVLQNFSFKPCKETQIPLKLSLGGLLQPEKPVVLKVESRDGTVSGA

Turning to `O=C(c1cc(C(F)(F)F)cc(C(F)(F)F)c1)N1CCC2(CC1)CN(c1ccccc1)C2`, at Cytochrome P450 3A4, the AC50 result is “inconclusive”.
On to `CC(C)(C)c1ccc(C(=O)N2CCCCCC2=O)cc1`, for which the AC50 in [1] was 2.77 µM (active); with A-375 [2], > 35 µM (active); with A-375 [3] it was > 35 µM (active); in data set [5] it was 0.611 µM (active); in data set [6], 4.27 µM (active); in data set [8], 1.12 µM (active). In data set [9], the AC50 was 1.73 µM (active). The IC50 is > 80 µM (inactive) in [4] and 0.38 µM (active) in the data set on Jurkat. The EC50 with HT-1080 was > 50 µM (not active); in [7], 1.5 µM (active).
Regarding `COc1ccc(C(=O)Nc2cc(OC)nc(OC)n2)cc1`, the results for the EC50 in [10] and in data set [11] were 16.3 µM (active) and 8.79 µM (active), respectively. Also, in the data set with HeLa, the AC50 was 178 µM (active).
Take `CC[n+]1c(/C=C/c2c[nH]c3ccccc23)ccc2cc(C)ccc21`: the IC50 in data set [12] was 24.6 µM (not active); in [13], > 50 µM (not active); in data set [14], 9.63 µM (active); in data set [15], 50 µM (inactive); in [17], 11 µM (active); in [18], 10.2 µM (active). Besides, the IC50 in [19] is 10.8 µM (active). Moreover, the AC50 in data set [16] was > 20 µM (inactive).
In the case of `CN(c1ccccc1)c1ccc(/C=C(\C#N)c2nnc3n2CCCCC3)cc1[N+](=O)[O-]`, the AC50 is 24.3 µM (active) in [20] and 0.597 µM (active) in data set [21].
